As for `CC(C)CCc1nc(C2=NS(=O)(=O)c3ccccc32)c(O)c2ccccc12`, the melting point lay within 206 to 209 °C.

The compound `O=S1(=O)N=C(c2nc(Cc3ccc(F)cc3)c3ccc(F)cc3c2O)c2cccc(Cl)c21` showed a melting point of more than 275 °C.

`COc1ccc(-c2cccc3c2S(=O)(=O)N=C3c2nc(Cc3ccc(F)cc3)c3ccccc3c2O)cn1` displayed a melting point of 194 to 196 °C.

`Cc1nc(S(=O)(=O)NCc2cccc3c2S(=O)(=O)N=C3C2=C(O)[C@H](C(C)(C)C)N(Cc3ccc(F)cc3)C2=O)cn1C.O=C(O)C(F)(F)F` came in with a melting point of 110 to 116 °C.

Turning to `O=C1C(C2=NS(=O)(=O)c3ccccc32)=C(O)[C@H](C2CCCCC2)N1Cc1ccc(F)cc1.[Na]`, the melting point was in the range of 235 to 238 °C.

For `CC(C)(C)[C@H]1C(O)=C(C2=NS(=O)(=O)c3ccccc32)C(=O)N1CC1CCC1`, the melting point fell in the range of 69 to 78 °C.

In the case of `CC(C)C[C@@H]1C(O)=C(C2=NS(=O)(=O)c3ccccc32)C(=O)N1Cc1ccc(F)cc1`, the melting point was 200 °C (dec.).

Take `O=C1C(C2=NS(=O)(=O)c3ccccc32)=C(O)[C@H](Cc2ccccc2)N1Cc1ccc(F)cc1`: the melting point lay in the range of 85 to 92 °C.

The compound `COc1ncc(-c2cccc3c2S(=O)(=O)N=C3C2=C(O)[C@H](C(C)(C)C)N(Cc3ccc(F)cc3)C2=O)cn1` gave a melting point of more than 250 °C.

For `CC(C)(C)[C@H]1C(O)=C(C2=NS(=O)(=O)c3c2cccc3-c2cnc(=O)[nH]c2)C(=O)N1Cc1ccc(F)cc1`, the melting point is more than 260 °C.

Turning to `CC(C)(C)[C@H]1C(O)=C(C2=NS(=O)(=O)c3c(CNS(=O)(=O)C4CC4)cccc32)C(=O)N1Cc1ccc(F)cc1`, the melting point fell in the range of 102 to 105 °C.

Regarding `CC(C)(C)[C@H]1C(O)=C(C2=NS(=O)(=O)c3c2cccc3-c2cn[nH]c2)C(=O)N1Cc1ccc(F)cc1`, the melting point was more than 250 °C.

`COc1cccc2c1S(=O)(=O)N=C2C1=C(O)[C@H](C(C)(C)C)N(Cc2ccc(F)cc2)C1=O` returned a melting point of 224 to 235 °C.

The compound `CC(C)(C)[C@H]1C(O)=C(C2=NS(=O)(=O)c3c(CN4CCCS4(=O)=O)cccc32)C(=O)N1Cc1ccc(F)cc1` registered a melting point of 224 to 230 °C.

`COc1cc(CN2C(=O)C(C3=NS(=O)(=O)c4c(CNS(C)(=O)=O)cccc43)=C(O)[C@@H]2C(C)(C)C)ccc1F` came in with a melting point of 121 to 126 °C.

`CN(C)C(=O)CNc1cccc2c1S(=O)(=O)N=C2C1=C(O)[C@H](C(C)(C)C)N(Cc2ccc(F)cc2)C1=O`: the melting point was 185 to 190 °C.

The compound `CNC(=O)CNCc1cccc2c1S(=O)(=O)N=C2C1=C(O)[C@H](C(C)(C)C)N(Cc2ccc(F)cc2)C1=O` registered a melting point of 175 to 180 °C.

Compound `CC(C)(C)[C@H]1C(O)=C(C2=NS(=O)(=O)c3c(NS(C)(=O)=O)cccc32)C(=O)N1Cc1ccc(F)cc1` came in with a melting point of 245 to 250 °C.

Regarding `CNC(=O)COc1cccc2c1S(=O)(=O)N=C2C1=C(O)[C@H](C(C)(C)C)N(Cc2ccc(F)cc2)C1=O`, the melting point was more than 210 °C.

On to `CC(C)(C)[C@H]1C(O)=C(C2=NS(=O)(=O)c3c(CNS(C)(=O)=O)cccc32)C(=O)N1Cc1ccc(F)c(Br)c1`, for which the melting point fell in the range of 138 to 159 °C.

`CC(C)(C)[C@H]1C(O)=C(C2=NS(=O)(=O)c3c(CNS(=O)(=O)c4ccccc4)cccc32)C(=O)N1Cc1ccc(F)cc1` registered a melting point of 96 to 112 °C.

Compound `CN(C)S(=O)(=O)Oc1cccc2c1S(=O)(=O)N=C2C1=C(O)[C@H](C(C)(C)C)N(Cc2ccc(F)cc2)C1=O` displayed a melting point of 116 to 126 °C.

In turn, `CNS(=O)(=O)COc1cccc2c1S(=O)(=O)N=C2C1=C(O)[C@H](C(C)(C)C)N(Cc2ccc(F)cc2)C1=O` registered a melting point of 155 to 165 °C.

The compound `CCC(=O)N(Cc1cccc2c1S(=O)(=O)N=C2C1=C(O)[C@H](C(C)(C)C)N(Cc2ccc(F)c(C)c2)C1=O)S(C)(=O)=O` displayed a melting point of 98 to 99.8 °C.

The term melting point denotes the temperature, or range, at which the solid turns liquid.

Values taken from US7674810B2, “1,1-dioxo-1H-1Λ6-benzo[d]isothiazol-3-yl)-4-hydroxy-1,5-dihydro-pyrrol-2-one inhibitors of HCV polymerase” (Roche Palo Alto LLC, priority 2006, dated 2010).
